From patent publication US9963432B2, “Beta-amino-isoquinolinyl amide compounds” (Aerie Pharmaceuticals, Inc., priority 2016, dated 2018)
Read-outs that look alike come from different tables or passages of the source.

What was measured:
ROCK2 = ROCK2 (Homo sapiens, UniProt O75116); test: ROCK Kinase Assay (Kinase-Glo luminescent); type: biochemical
Method: All compounds were initially prepared as 10 mM stocks in anhydrous dimethylsulfoxide (DMSO). […] Test compounds were then serially diluted 1:3 in DMSO for a 10-point concentration response and further diluted in the assay buffer bringing all compound concentrations to 4× final concentration in 10% DMSO. […] A 10 μL aliquot of compound from each well of the intermediate dilution plate and 10 μL of a 4× stock solution containing ATP (5 μM) and acceptor substrate (20 μM RSK2 peptide […]) were added to all wells. […] Reactions were thoroughly mixed manually, covered and allowed to incubate at room temperature for 180 min. Protein kinase activity was quantitated using Promega's Kinase-Glo™ luminescent Kinase Assay Kit according to the manufacturer's directions. ATP concentrations remaining in Test wells following the termination of the enzymatic reaction were compared against control wells containing equivalent amounts of DMSO containing no inhibitor (CTRL). […] Percent of Control (POC) values were determined for each concentration of compound tested according to the equation: POC=((Test well value−BKG)/(CTRL−BKG))*100
IC50 values were calculated using the following 4-parameter logistic curve-fitting algorithm: f(x)=(A+((B−A)/(1+((x/C)^D))))
IC50 values were converted to Ki values using the Cheng-Prusoff Equation: Ki=IC50/(1+([ATP]/Km ATP])).

[1] = tested on: Immortalized Human Trabecular Meshwork cells (TM-1); test: PTM-HTM Assay: human trabecular meshwork cells, focal adhesions; type: cell-based; details: TM1, TM-1 cells, anti-paxillin stain, total area of focal adhesions, percent of control
Method: (§1) Porcine Trabecular Meshwork cells (PTM) were isolated from freshly obtained enucleated porcine eyes following a procedure by Rao et al.^1 Immortalized Human Trabecular Meshwork cells (TM-1) were obtained through a kind gift from Donna Peters in the Department of Ophthalmology and Visual Sciences at the University of Wisconsin. Cells were plated onto fibronectin coated glass-bottom 96-well plates and allowed to attach overnight. Media was removed and replaced with test compound in media with 1% fetal bovine serum and incubated for various times. After incubation, cells were formaldehyde fixed, triton solubilized, and stained. PTM cells were stained with Alexa Fluor®488 phalloidin (F-actin) and Hoechst 33342 (nuclei). TM-1 cells were stained with anti-paxillin followed by Alexa Fluor®488 goat-anti-mouse IgG (focal adhesions) and Hoechst 33342 (nuclei). All staining reagents were obtained through Invitrogen. Images were collected on an INCell 2200 imager with a 20× objective. The actin fiber length and total area of focal adhesions were analyzed using custom algorithms developed in the INCell Developer Toolbox, v1.9.3. Data collected were converted to percent of control (untreated cells). Curves were fit to data in GraphPad Prizm4 using sigmoidal dose-response and constraining top and bottom to 100% and 0%, respectively.

[2] = tested on: Porcine Trabecular Meshwork cells (PTM); test: PTM-HTM Assay: porcine trabecular meshwork cells, actin fibers; type: cell-based; details: Sus scrofa, phalloidin stain, actin fiber length, percent of control
Method: as §1

[3] = IC50 converted to Ki by Cheng-Prusoff, ATP 5 μM, ROCK2 1 nM, 180 min, read-out: ROCK2 Ki

Chain of ROCK2 (O75116 whole entry, species assumed): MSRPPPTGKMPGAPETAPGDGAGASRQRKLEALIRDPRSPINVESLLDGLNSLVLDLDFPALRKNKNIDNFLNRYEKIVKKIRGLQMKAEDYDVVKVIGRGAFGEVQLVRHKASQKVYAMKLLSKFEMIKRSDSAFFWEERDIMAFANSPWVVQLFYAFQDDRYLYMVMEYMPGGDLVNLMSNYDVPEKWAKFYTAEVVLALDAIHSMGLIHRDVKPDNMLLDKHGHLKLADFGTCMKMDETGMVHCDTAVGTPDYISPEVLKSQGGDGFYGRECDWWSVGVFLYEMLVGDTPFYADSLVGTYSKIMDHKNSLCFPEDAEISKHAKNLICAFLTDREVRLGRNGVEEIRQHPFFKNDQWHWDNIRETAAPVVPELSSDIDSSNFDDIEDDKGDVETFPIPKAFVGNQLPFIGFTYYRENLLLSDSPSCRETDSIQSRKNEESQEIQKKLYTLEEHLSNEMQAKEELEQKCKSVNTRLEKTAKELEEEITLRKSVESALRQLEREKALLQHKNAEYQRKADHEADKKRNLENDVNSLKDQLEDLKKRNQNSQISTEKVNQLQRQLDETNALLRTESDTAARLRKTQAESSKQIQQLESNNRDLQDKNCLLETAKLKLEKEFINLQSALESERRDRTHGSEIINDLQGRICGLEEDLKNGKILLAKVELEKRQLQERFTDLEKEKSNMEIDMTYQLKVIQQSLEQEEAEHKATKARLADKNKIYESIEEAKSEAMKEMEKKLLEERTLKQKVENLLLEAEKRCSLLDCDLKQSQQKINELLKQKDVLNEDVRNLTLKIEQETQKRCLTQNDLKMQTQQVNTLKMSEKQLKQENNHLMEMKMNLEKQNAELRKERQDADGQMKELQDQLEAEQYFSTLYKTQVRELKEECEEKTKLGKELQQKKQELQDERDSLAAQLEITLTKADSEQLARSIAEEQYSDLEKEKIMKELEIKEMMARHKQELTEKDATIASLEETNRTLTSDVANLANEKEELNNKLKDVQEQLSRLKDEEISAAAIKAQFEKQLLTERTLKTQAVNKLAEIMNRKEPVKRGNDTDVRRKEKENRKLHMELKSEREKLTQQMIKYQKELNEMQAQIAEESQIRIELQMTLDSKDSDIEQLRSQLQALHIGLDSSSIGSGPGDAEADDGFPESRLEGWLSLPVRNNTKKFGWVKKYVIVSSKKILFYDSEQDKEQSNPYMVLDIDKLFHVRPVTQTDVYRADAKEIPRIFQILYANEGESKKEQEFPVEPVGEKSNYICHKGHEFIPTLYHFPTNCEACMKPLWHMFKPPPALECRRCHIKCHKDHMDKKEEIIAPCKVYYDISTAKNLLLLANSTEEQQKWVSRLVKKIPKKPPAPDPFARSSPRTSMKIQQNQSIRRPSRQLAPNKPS

Row | SMILES | Ki (ROCK2; [3]) | IC50 [2] | IC50 [1] | Ki (ROCK2)
1 | NC[C@@H](C(=O)Nc1ccc2cnccc2c1)c1ccccc1 [3 (S)] | 0.4 nM | – | 41 nM | –
2 | NC[C@H](C(=O)Nc1ccc2cnccc2c1)c1ccccc1 [4 (R)] | 16 nM | – | – | –
3 | NCC(C(=O)Nc1ccc2cnccc2c1)c1ccccc1 (centres unmarked) [Compound 2] | 0.8 nM | – | – | –
4 | NCC(C(=O)Nc1ccc2c(O)nccc2c1)c1ccccc1 (centres unmarked) [Compound 5] | 2.2 nM | 45 nM | 266 nM | –
5 | NCC(C(=O)Nc1ccc2cnccc2c1)c1ccccc1F (centres unmarked) [Compound 6] | 1 nM | 260 nM | 139 nM | –
6 | NCC(C(=O)Nc1ccc2cnccc2c1)c1cccc(F)c1 (centres unmarked) [Compound 7] | 1 nM | 298 nM | 201 nM | –
7 | NCC(C(=O)Nc1ccc2cnccc2c1)c1ccc(F)cc1 (centres unmarked) [Compound 8] | 1 nM | 175 nM | 102 nM | –
8 | NCC(C(=O)Nc1ccc2cnccc2c1)c1ccccc1Cl (centres unmarked) [Compound 9] | 1.3 nM | 245 nM | 192 nM | –
9 | NCC(C(=O)Nc1ccc2cnccc2c1)c1cccc(Cl)c1 (centres unmarked) [Compound 10] | 0.9 nM | 455 nM | 383 nM | –
10 | NCC(C(=O)Nc1ccc2cnccc2c1)c1ccc(Cl)cc1 (centres unmarked) [Compound 11] | 0.4 nM | 129 nM | 64 nM | –
11 | NCC(C(=O)Nc1ccc2cnccc2c1)c1ccc(Cl)cc1Cl (centres unmarked) [Compound 12] | 0.8 nM | 214 nM | 208 nM | –
12 | Cc1ccccc1C(CN)C(=O)Nc1ccc2cnccc2c1 (centres unmarked) [Compound 13] | 1 nM | 200 nM | 90 nM | –
13 | Cc1cccc(C(CN)C(=O)Nc2ccc3cnccc3c2)c1 (centres unmarked) [Compound 14] | 3.3 nM | 511 nM | 324 nM | –
14 | Cc1ccc(C(CN)C(=O)Nc2ccc3cnccc3c2)cc1 (centres unmarked) [Compound 15] | 0.4 nM | 84 nM | 39 nM | –
15 | NCC(C(=O)Nc1ccc2cnccc2c1)c1ccc(CO)cc1 (centres unmarked) [Compound 24] | – | – | – | 0.7 nM

Further lines, with some results ahead:

Row | Ki (ROCK2; [3]) | IC50 [2] | SMILES | IC50 [1] | Ki (ROCK2)
16 | 1.3 nM | 459 nM | NCC(C(=O)Nc1ccc2cnccc2c1)c1cccc(O)c1 (centres unmarked) [Compound 16] | 1720 nM | –
17 | 0.6 nM | 1020 nM | NCC(C(=O)Nc1ccc2cnccc2c1)c1ccc(O)cc1 (centres unmarked) [Compound 17] | 193 nM | –
18 | 5.5 nM | 5150 nM | NCC(C(=O)Nc1ccc2cnccc2c1)c1ccc(O)c(O)c1 (centres unmarked) [Compound 18] | 11000 nM | –
19 | 2 nM | 448 nM | COc1cccc(C(CN)C(=O)Nc2ccc3cnccc3c2)c1 (centres unmarked) [Compound 19] | 214 nM | –
20 | 1.3 nM | 670 nM | COc1ccc(C(CN)C(=O)Nc2ccc3cnccc3c2)cc1 (centres unmarked) [Compound 20] | 111 nM | –
21 | 2.7 nM | 596 nM | NCC(C(=O)Nc1ccc2cnccc2c1)c1cccc(C(F)(F)F)c1 (centres unmarked) [Compound 21] | 475 nM | –
22 | 1.8 nM | 152 nM | NCC(C(=O)Nc1ccc2cnccc2c1)c1ccc(C(F)(F)F)cc1 (centres unmarked) [Compound 22] | 493 nM | –
23 | 3 nM | 1380 nM | NCC(C(=O)Nc1ccc2cnccc2c1)c1cccc(CO)c1 (centres unmarked) [Compound 23] | 248 nM | –
